Consider 19 compounds from patent publication US11440913B2, “Aminoimidazopyridazines as kinase inhibitors” (BRISTOL-MYERS SQUIBB COMPANY, priority 2017, dated 2022).

Molecules are shown by their SMILES.

Usually IC50 stands for the concentration that gives 50% inhibition.

Experiment [1] has as its system MLKL phosphorylation in HT29-L23 human colorectal adenocarcinoma cells. Nature of the experiment: MLKL Phosphorylation High-Content Assay. It counts as cell-based. Particulars: Homo sapiens, 6 h, necroptosis induced with TNFα, SMAC mimetic and Z-VAD, read-out: pMLKL (IC50). In outline: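 HT29-L23 cells pretreated 30 min at 37 °C with compound (6.25 to 0.106 μM final), then necroptosis induced with TNFα 35 ng/mL, SMAC mimetic 700 nM and Z-VAD 140 nM for 6 h. Fixed cells immunostained for MLKL pS358 and imaged; IC50 and Ymax from 4-parameter logistic fit.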

Experiment [2] addresses His-GST-TVMV-hRIPK1(1-324) (Homo sapiens (Human), UniProt Q13546). Nature of the experiment: RIPK1 HTRF Binding Assay. Particulars: HTRF binding, 1 h at rt; read-out: RIPK1 (IC50). The method, boiled down:
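HTRF probe-displacement binding: 1 nM His-GST-TVMV-hRIPK1(1-324) (baculovirus construct), 90.6 nM probe, 0.2 nM anti-GST-Tb in 20 mM HEPES, 10 mM MgCl2, 0.015% Brij-35, 4 mM DTT, 0.05 mg/mL BSA. Incubated 1 h at rt; FRET 520/495 nm ratio, inhibition relative to DMSO-only wells.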
In general terms: TR-FRET usually uses a lanthanide donor and a delayed reading to cut background.

His-GST-TVMV-hRIPK1(1-324), sequence (Q13546 1-324): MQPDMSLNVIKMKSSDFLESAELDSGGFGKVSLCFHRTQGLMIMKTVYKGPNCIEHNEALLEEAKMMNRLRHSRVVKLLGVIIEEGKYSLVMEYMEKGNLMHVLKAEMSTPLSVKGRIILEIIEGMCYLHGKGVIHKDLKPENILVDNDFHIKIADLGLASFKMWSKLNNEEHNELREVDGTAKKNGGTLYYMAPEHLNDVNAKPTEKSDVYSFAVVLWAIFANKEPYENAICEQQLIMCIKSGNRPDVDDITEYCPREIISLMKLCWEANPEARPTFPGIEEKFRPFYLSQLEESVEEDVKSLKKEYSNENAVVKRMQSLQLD

On to `CC(=O)Nc1cn2nc(-c3cc(C(=O)NCc4cc(C(F)(F)F)cc(Cl)c4F)c(C)cc3C)ccc2n1` [Example 384, N-{[3-chloro-2-fluoro-5-(trifluoromethyl)phenyl]methyl}-5-{2-acetamidoimidazo [1,2-b]pyridazin-6-yl}-2,4-dimethylbenzamide], for which the results for the IC50 in experiment [1] and in experiment [2] were 99 nM and 48 nM, respectively.

Take `CC(=O)Nc1cn2nc(-c3ccc(C(F)(F)F)c(C(=O)NCc4cc(C(F)(F)F)ccc4F)c3)ccc2n1` [Example 385, 5-{2-acetamidoimidazo [1,2-b]pyridazin-6-yl}-N-{[2-fluoro-5-(trifluoromethyl)phenyl]methyl}-2-(trifluoromethyl) benzamide]: the 50% inhibitory concentration (IC50) in experiment [1] came to 189 nM; in experiment [2], 57 nM.

With `CC(=O)Nc1cn2nc(-c3ccc(Cl)c(C(=O)NCC[C@@H](O)c4ccc(Cl)cc4)c3)ccc2n1` [Example 386, 2-chloro-N-[(3R)-3-(4-chlorophenyl)-3-hydroxypropyl]-5-{2-acetamidoimidazo [1,2-b]pyridazin-6-yl}benzamide], the IC50 in experiment [1] is 13 nM; in experiment [2] it was 5 nM.

Regarding `CC(=O)Nc1cn2nc(-c3ccc(Cl)c(C(=O)NCc4cc(F)ccc4C(=O)N4CCC(F)(F)C4)c3)ccc2n1` [Example 387, 2-chloro-N-{[2-(3,3-difluoropyrrolidine-1-carbonyl)-5-fluorophenyl]methyl}-5-{2-acetamidoimidazo [1,2-b]pyridazin-6-yl}benzamide], the IC50 in experiment [1] came out at 5 nM; in experiment [2], 8 nM.

Regarding `CC(=O)Nc1cn2nc(-c3ccc(Cl)c(C(=O)N[C@H](C)c4cc(OC(F)(F)F)ccc4F)c3F)ccc2n1` [Example 388, 6-chloro-3-{2-acetamidoimidazo [1,2-b]pyridazin-6-yl}-2-fluoro-N-[(1R)-1-[2-fluoro-5-(trifluoromethoxy)phenyl]ethyl] benzamide], the IC50 in experiment [1] worked out at 2 nM; in experiment [2], 7 nM.

Regarding `CC(=O)Nc1cn2nc(-c3ccc(Cl)c(C(=O)NCc4cc(-c5cnn(C)c5)ccc4F)c3F)ccc2n1` [Example 389, 6-chloro-3-{2-acetamidoimidazo [1,2-b]pyridazin-6-yl}-2-fluoro-N-{[2-fluoro-5-(1-methyl-1H-pyrazol-4-yl)phenyl]methyl} benzamide], the IC50 in experiment [1] turned out to be 8 nM; in experiment [2], 4 nM.

For `CC(=O)Nc1cn2nc(-c3ccc(Cl)c(C(=O)NCC[C@H](O)c4ccc(Cl)cc4)c3F)ccc2n1` [Example 390, 6-chloro-N-[(3S)-3-(4-chlorophenyl)-3-hydroxypropyl]-3-{2-acetamidoimidazo [1,2-b]pyridazin-6-yl}-2-fluorobenzamide], the 50% inhibitory concentration (IC50) in experiment [1] came to 3 nM; in experiment [2], 5 nM.

In the case of `CC(=O)Nc1cn2nc(-c3ccc(Cl)c(C(=O)NCc4ccc(OC(F)(F)F)cc4)c3F)ccc2n1` [Example 391, 6-chloro-3-{2-acetamidoimidazo [1,2-b]pyridazin-6-yl}-2-fluoro-N-{[4-(trifluoromethoxy)phenyl]methyl} benzamide], the IC50 was found to be 274 nM in experiment [1] and 105 nM in experiment [2].

As to `CC(=O)Nc1cn2nc(-c3cc(C(=O)N[C@H](C)c4cc(OC(F)(F)F)ccc4F)c(Cl)cc3F)ccc2n1` [Example 392, 2-chloro-5-{2-acetamidoimidazo [1,2-b]pyridazin-6-yl}-4-fluoro-N-[(1R)-1-[2-fluoro-5-(trifluoromethoxy)phenyl]ethyl] benzamide], the IC50 in experiment [1] came to 72 nM; in experiment [2], 36 nM.

`CC(=O)Nc1cn2nc(-c3ccc(C)c(C(=O)NCc4cc(OC(F)(F)F)ccc4F)c3)ccc2n1` [Example 394, 5-{2-acetamidoimidazo [1,2-b]pyridazin-6-yl}-N-{[2-fluoro-5-(trifluoromethoxy)phenyl]methyl}-2-methylbenzamide]: the IC50 in experiment [1] and in experiment [2] was 3 nM throughout.

Turning to `Cc1ccc(-c2ccc3nc(NC(=O)[C@H](C)O)cn3n2)cc1C(=O)NCc1cc(OC(F)(F)F)ccc1F` [Example 395, (S)-N-(2-fluoro-5-(trifluoromethoxy)benzyl)-5-(2-(2-hydroxypropanamido)imidazo[1,2-b]pyridazin-6-yl)-2-methylbenzamide], the IC50 in experiment [1] worked out at 25 nM; in experiment [2], 7 nM.

As to `CC(=O)Nc1cn2nc(-c3ccc(C)c(C(=O)N[C@H](C)c4cc(OC(F)(F)F)ccc4F)c3)ccc2n1` [Example 396, (R)-5-(2-acetamidoimidazo [1,2-b]pyridazin-6-yl)-N-(1-(2-fluoro-5-(trifluoromethoxy)phenyl)ethyl)-2-methylbenzamide], the IC50 was found to be 7 nM in experiment [1] and 1 nM in experiment [2].

Take `CC(=O)Nc1cn2nc(-c3ccc(C)c(C(=O)NCC[C@@H](O)c4ccc(Cl)cc4)c3)ccc2n1` [Example 397, N-[(3R)-3-(4-chlorophenyl)-3-hydroxypropyl]-5-{2-acetamidoimidazo [1,2-b]pyridazin-6-yl}-2-methylbenzamide]: the IC50 in experiment [1] and in experiment [2] was 3 nM in each case.

As for `CC(=O)Nc1cn2nc(-c3ccc(C)c(C(=O)NCC[C@H](O)c4ccc(Cl)cc4)c3)ccc2n1` [Example 398, N-[(3S)-3-(4-chlorophenyl)-3-hydroxypropyl]-5-{2-acetamidoimidazo [1,2-b]pyridazin-6-yl}-2-methylbenzamide], the figures for the IC50 in experiment [1] and in experiment [2] were 2 nM and 5 nM, respectively.

As to `CC(=O)Nc1cn2nc(-c3ccc(C)c(C(=O)NCC(O)COc4ccccc4)c3)ccc2n1` (centres unmarked) [Example 400, 5-{2-acetamidoimidazo [1,2-b]pyridazin-6-yl}-N-(2-hydroxy-3-phenoxypropyl)-2-methylbenzamide], the IC50 in experiment [1] and in experiment [2] was 11 nM in each case.

For `CC(=O)Nc1cn2nc(-c3ccc(C)c(C(=O)NC[C@H]4C[C@@H]4c4ccc(F)cc4)c3)ccc2n1` [Example 401, 5-{2-acetamidoimidazo [1,2-b]pyridazin-6-yl}-N-{[(1S, 2S)-2-(4-fluorophenyl)cyclopropyl]methyl}-2-methylbenzamide], the IC50 in experiment [1] stood at 77 nM; in experiment [2] it was 105 nM.

For `CC(=O)Nc1cn2nc(-c3ccc(C)c(C(=O)NCc4c(F)cccc4-c4cnn(C)c4)c3)ccc2n1` [Example 402, 5-{2-acetamidoimidazo [1,2-b]pyridazin-6-yl}-N-{[2-fluoro-6-(1-methyl-1H-pyrazol-4-yl)phenyl]methyl}-2-methylbenzamide], the half-maximal inhibitory concentration (IC50) in experiment [1] turned out to be 94 nM; in experiment [2], 56 nM.

On to `CC(=O)Nc1cn2nc(-c3ccc(C)c(C(=O)NCc4cc(F)ccc4-c4cnn(C)c4)c3)ccc2n1` [Example 403, 5-{2-acetamidoimidazo [1,2-b]pyridazin-6-yl}-N-{[5-fluoro-2-(1-methyl-1H-pyrazol-4-yl)phenyl]methyl}-2-methylbenzamide], for which the half-maximal inhibitory concentration (IC50) in experiment [1] amounted to 262 nM; in experiment [2], 67 nM.

As to `CC(=O)Nc1cn2nc(-c3ccc(C)c(C(=O)NCc4cc(C(=O)N5CC(F)(F)C5)ccc4F)c3)ccc2n1` [Example 404, N-{[5-(3,3-difluoroazetidine-1-carbonyl)-2-fluorophenyl]methyl}-5-{2-acetamidoimidazo [1,2-b]pyridazin-6-yl}-2-methylbenzamide], the results for the IC50 in experiment [1] and in experiment [2] were 259 nM and 52 nM, respectively.
